According to paper PMC7802073, “Small Molecule Inhibitors of the Bacterioferritin (BfrB)–Ferredoxin (Bfd) Complex Kill Biofilm-Embedded Pseudomonas aeruginosa Cells” (ACS Infectious Diseases, 2020):
≈ marks a conversion by molar mass, not a printed value. Read-outs that look alike come from different tables or passages of the source.

Legend:
PA_1076058 = settings: isolate purchased from JMI Laboratories, no MIC method given; cited from earlier work
PA_1081725 = settings: isolate purchased from JMI Laboratories, no MIC method given; cited from earlier work
P. aeruginosa PAO1 [1] = test system: P. aeruginosa PAO1; parameters: method as in PMID 31038945; settings: planktonic growth, cited from earlier work
BfrB [2] = biological target: T1, BfrB (Pseudomonas aeruginosa, UniProt Q9HY79); assay: Dissociation constant (Kd) for BfrB by fluorescence polarization; assay type: binding
Description: Dissociation constants for the interaction between BfrB and 3-aminoisoindoline-1,3-dione derivatives (Table 1, Figure S1) were measured in vitro with a fluorescence polarization method based on the intrinsic fluorescence of the isoindoline-1,3-dione moiety, as described previously.[25]
25 (A) and KM-5-66 (B) for BfrB, evaluated by fluorescence polarization, as described previously1.
Values were obtained in 100 mM potassium phosphate buffer (pH 7.6) containing 1 mM TCEP and
0.5% DMSO. The initial concentrations of KM-5-25 and KM-5-66 were 5 µM. The Kd values are the
average and standard deviation from three independent measurements. […]

P. aeruginosa PAO1 [3] = assay: Half maximal inhibitory concentration (IC50) on planktonic growth, CFU/mL enumeration; assay type: cell-based, Pseudomonas aeruginosa; settings: 24 h, 35 °C, 2% DMSO, this work
Description: Chemicals were purchased from Fisher Scientific unless otherwise stated. P. aeruginosa PAO1 was obtained from the University of Washington Genome center.[81] The PAO1 strain expressing enhanced yellow fluorescent protein (EYFP) was prepared previously.[26] Clinical isolates of P. aeruginosa were purchased from JMI Laboratories (North Liberty, IA, USA). […] Starter cultures were grown from a single colony at 37 °C and shaking at 220 rpm for 14 h in 5 mL PI media supplemented with 10 μM Fe. Pellicle biofilms were cultured for 48 h at 30 °C in PI media supplemented with 20 μM Fe. Surface-attached biofilms were cultured in AB minimal media[82] supplemented with trace metals [0.15 μM (NH4)2MoO4, 3 μM CuSO4, 2 μM Co(NO3)2, 9.4 μM Na2B4O7, and 7.6 μM ZnSO4], 3 mM glucose and 15 μM Fe. Iron supplementation was carried out by addition of a small volume of filter-sterilized 10 mM (NH4)2Fe(SO4)2 (pH ∼ 2.0) solution. […]; IC50 values (Table 1, Figure S1) were determined as reported previously[25] with small modifications. In brief: precultures of P. aeruginosa PAO1 (5 mL) were grown in LB media for 13 h at 37 °C and 220 rpm in 50 mL conical tubes (VWR International, PA). The cells were centrifuged for 5 min at 4000 rpm and 4 °C, washed two times and then diluted in buffer (100 mM KH2PO4 and 15 mM (NH4)2SO4) to an optical density at 600 nm (OD600) of 0.1. A small volume of compound stock solution (10 mM) was transferred to a microcentrifuge tube, initially diluted with DMSO to 20 μL, and then diluted to 1 mL with preculture cell suspension in defined media with OD600 = 0.0001, so the final DMSO concentration is 2%. The resultant cell suspension (200 μL) was transferred to a clear-bottom polystyrene 96-well plate (VWR) covered with a lid and incubated at 35 °C and 205 cpm for 24 h in a Synergy H1 microplate reader (Biotek Instruments Inc., Vermont). The cell cultures were serially diluted and then plated on PI Agar (PIA; BD biosciences) plates for enumeration of viable cells (CFU/mL). The % growth was calculated from the ratio CFU/mL(treated)/CFU/mL(untreated control). To calculate the IC50 values, the % growth was plotted as a function of compound concentration, expressed as log[compound] (μM), and fitted to the 4-parameter logistic model describing the sigmoid-shaped response pattern (eq 1),[84] where b is the slope factor, max is the upper asymptote (plateau), and min is the lower asymptote. Values are the average and standard deviation from three independent experiments. [drawing 1] 1

Aqueous solubility = assay type: physicochemical; settings: for solubility: PBS buffer, read-out: solubility in PBS buffer; for aqueous solubility (in words): aqueous solution
P. aeruginosa = test system: P. aeruginosa; parameters: method as in PMID 11420333; settings: cited from earlier work
[4] = test system: EYFP-expressing P. aeruginosa PAO1 pellicles; assay: Viable cells (CFU/mL) dispersed from pellicle biofilms; assay type: cell-based, Pseudomonas aeruginosa; settings: 2-day old pellicles, 24 h
Description: Pellicle biofilms were grown as described above. Planktonic and loosely attached cells were washed (3 times) by immersing the coverslip-adhered pellicles (biofilm facing up) into a well of a 12-well plate containing 3 mL PBS, and incubating (5 min) with gentle rocking. To remove the pellicle from the coverslip, break the extracellular matrix and release cells from the biofilm, the coverslip-adhered pellicle was placed in a 50 mL conical tube containing a 2 mL suspension of zirconia beads (0.1 mm diameter, BioSpec Products), 10 mL PBS, 0.2 μg/mL alginate lyase and 0.2 μg/mL DNase. The resultant mixture was incubated at room temperature for 3 min, followed by vigorous vortexing for 4 min. After sedimentation of the zirconia beads, a 100 μL aliquot was used for serial dilution and plating on PIA plates for subsequent enumeration of viable cells (CFU/mL).

[5] = test system: EYFP-expressing P. aeruginosa PAO1 biofilms; assay: Flow cell biofilm assay, CLSM imaging and COMSTAT viable biomass; assay type: cell-based, Pseudomonas aeruginosa; settings: 3-day old flow cell biofilms, 24 h treatment, 25× MIC
Text: The treated biofilms were counterstained with the cell impermeable fluorescent nucleic acid dye Sytox Red and then imaged with the aid of confocal laser scanning microscopy (CLSM).
Image stacks were acquired with a z-step size of 0.3 μm at randomly chosen positions.

[6] = test system: Pellicles of P. aeruginosa PAO1 expressing EYFP; assay: Pellicle biofilm assay, CLSM imaging and COMSTAT viable biomass; assay type: cell-based, Pseudomonas aeruginosa; settings: 2-day old pellicles, 24 h
Description: Pellicle biofilms of EYFP-expressing P. aeruginosa PAO1 or clinical isolates were grown in PI media supplemented with 20 μM Fe. Starter cultures were diluted to OD600 = 0.001 in 4 mL media, placed in 35 × 10 mm Petri dishes and incubated statically at 30 °C for 48 h. The pellicles were transferred onto circular (1.5 cm diameter) glass coverslips by gently allowing the surface of a coverslip to contact a pellicle. The pellicle-adhered coverslip was washed in PBS and then deposited on top of 1.5 mL AB challenge media contained in a well of a 12-well microplate, with the pellicle exposed to the media. […] The coverslip-adhered pellicles were exposed to challenge media at 30 °C for 24 h, changing the challenge media every 12 h by transferring the pellicle-adhered coverslip to a new plate containing prewarmed challenge media.
Excess fluorescent dye was washed with PBS, the coverslip was mounted on a glass slide using 5 μL SlowFade (Invitrogen Life Technologies) and the edges sealed with fingernail polish. CLSM image stacks (z-step size of 0.3 μm) were acquired with the aid of a Leica TCS SP8 microscope, as described above. Quantitative analysis was performed by determination of pellicle biomass using COMSTAT[55] and the Otsu method of automatic thresholding.[86]

BfrB [7] = biological target: T1, BfrB; settings: Bfd binding sites on BfrB equivalent and independent; cited from earlier work
[8] = Pseudomonas aeruginosa, PAO1, defined media, read-out: IC50

T1 sequence (Q9HY79 whole entry): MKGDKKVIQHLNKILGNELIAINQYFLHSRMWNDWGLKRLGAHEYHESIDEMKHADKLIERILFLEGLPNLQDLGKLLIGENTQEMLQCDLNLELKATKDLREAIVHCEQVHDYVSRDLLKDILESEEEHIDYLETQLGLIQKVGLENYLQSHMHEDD

NCC[C@H](O)C(=O)N[C@@H]1C[C@H](N)[C@@H](O[C@H]2O[C@H](CN)[C@@H](O)[C@H](O)[C@H]2O)[C@H](O)[C@H]1O[C@H]1O[C@H](CO)[C@@H](O)[C@H](N)[C@H]1O [Amikacin]
MIC (PA_1076058): 4 µg/mL (≈ 6.83 µM)
MIC (PA_1081725): 16 µg/mL (≈ 27.3 µM)

Nc1cccc2c1C(=O)NC2=O [Analog 8, 4-aminoisoindoline-1,3-dione]
IC50 (P. aeruginosa PAO1 [1]): not active

O=C1NC(=O)c2c(NCc3ccccc3O)cccc21 [Analog 11]
IC50 (P. aeruginosa PAO1 [1]; read-out: IC50): 258 ± 23 µM

O=C1NC(=O)c2c(NCCCc3cccc(O)c3)cccc21 [Analog 16]
IC50 (P. aeruginosa PAO1 [1]; read-out: IC50): 121 ± 4 µM

C[C@H]1[C@H](NC(=O)/C(=N\OC(C)(C)C(=O)O)c2csc(N)n2)C(=O)N1S(=O)(=O)O [Aztreonam]
MIC (PA_1076058): 16 µg/mL (≈ 36.7 µM)
MIC (PA_1081725): > 16 µg/mL

O=C1NC(=O)c2c(NCc3cccc(O)c3)cccc21 [BN-XIV-53]
Kd (BfrB [2]): 21 ± 3 µM
IC50 (P. aeruginosa PAO1 [3]; defined media): not active at 120 μM

CC(C)(O/N=C(\C(=O)N[C@@H]1C(=O)N2C(C(=O)[O-])=C(C[n+]3ccccc3)CS[C@H]12)c1csc(N)n1)C(=O)O [Ceftazidime]
MIC (PA_1076058): > 32 µg/mL
MIC (PA_1081725): > 32 µg/mL

C[C@H]1c2cccc(O)c2C(=O)C2=C(O)[C@]3(O)C(=O)C(C(N)=O)=C(O)[C@@H](N(C)C)[C@@H]3[C@@H](O)[C@@H]21 [Doxycycline]
MIC (PA_1076058): > 8 µg/mL
MIC (PA_1081725): 4 µg/mL (≈ 9 µM)

CNC(C)C1CCC(N)C(OC2C(N)CC(N)C(OC3OCC(C)(O)C(NC)C3O)C2O)O1 (stereo not shown) [Gentamicin]
MIC (PA_1076058): > 16 µg/mL
MIC (PA_1081725): 4 µg/mL (≈ 8.38 µM)

O=C1NC(=O)c2c(NCCCc3cc(F)ccc3O)cccc21 [JAG-5-6, 4-((3-(5-fluoro-2-hydroxyphenyl)propyl)amino)isoindoline-1,3-dione]
Kd (BfrB [2]): 0.43 ± 0.07 µM
IC50 (P. aeruginosa PAO1 [3]; [8]): 54 ± 9 µM

O=C1NC(=O)c2c(NCc3cc(F)ccc3O)cccc21 [JAG-5-7, 4-((5-Fluoro-2-hydroxybenzyl)amino)isoindoline-1,3-dione]
Kd (BfrB [2]): 7 ± 2 µM
IC50 (P. aeruginosa PAO1 [3]; [8]): 128 ± 26 µM

O=C1NC(=O)c2c(NCCCc3ccccc3O)cccc21 [KM-5-28]
Kd (BfrB [2]): 1.4 ± 0.2 µM
IC50 (P. aeruginosa PAO1 [3]; [8]): 96 ± 1 µM

O=C1NC(=O)c2c(NCc3c(O)cccc3Cl)cccc21 [KM-5-29, 4-((6-Chloro-2-hydroxybenzyl)amino)isoindoline-1,3-dione]
Kd (BfrB [2]): 6 ± 0.5 µM
solubility (Aqueous solubility): < 30 µM
aqueous solubility (in words) (Aqueous solubility): poorly soluble in aqueous solution

O=C1NC(=O)c2c(NCc3cccc(Cl)c3O)cccc21 [KM-5-30, 4-((3-Chloro-2-hydroxybenzyl)amino)isoindoline-1,3-dione]
Kd (BfrB [2]): 6 ± 1 µM
IC50 (P. aeruginosa PAO1 [3]; [8]): 156 ± 30 µM

O=C1NC(=O)c2c(NCc3cc(O)cc(Cl)c3)cccc21 [KM-5-50, 4-((5-Chloro-3-hydroxybenzyl)amino)isoindoline-1,3-dione]
Kd (BfrB [2]): 11 ± 2 µM
IC50 (P. aeruginosa PAO1 [3]; [8]): 82 ± 16 µM

O=C1NC(=O)c2c(NCCCc3cc(Cl)ccc3O)cccc21 [KM-5-54]
Kd (BfrB [2]): 0.22 ± 0.04 µM
solubility (Aqueous solubility): < 30 µM
aqueous solubility (in words) (Aqueous solubility): poor water solubility

O=C1NC(=O)c2c(NCCCc3cc(O)cc(O)c3)cccc21 [KM-5-57]
Kd (BfrB [2]): 2.5 ± 0.4 µM
IC50 (P. aeruginosa PAO1 [3]; defined media): not active at 200 μM

C[C@@H](O)[C@H]1C(=O)N2C(C(=O)O)=C(S[C@@H]3CN[C@H](C(=O)N(C)C)C3)[C@H](C)[C@H]12 [Meropenem]
MIC (PA_1076058): 4 µg/mL (≈ 10.4 µM)
MIC (PA_1081725): 32 µg/mL (≈ 83.4 µM)

O=C(O)c1cn(C2CC2)c2cc(N3CCNCC3)c(F)cc2c1=O [ciprofloxacin]
MIC (P. aeruginosa; reported MIC converted to μM): 0.75 µM
MIC (P. aeruginosa; reported MIC): 0.25 µg/mL
MIC (PA_1076058): > 16 µg/mL
MIC (PA_1081725): 16 µg/mL (≈ 48.3 µM)

NC[C@H]1O[C@H](O[C@H]2[C@H](O)[C@@H](O[C@H]3O[C@H](CO)[C@@H](O)[C@H](N)[C@H]3O)[C@H](N)C[C@@H]2N)[C@H](N)C[C@@H]1O [tobramycin]
% cell survival, CFU/mL(after treatment)/CFU/mL(pretreatment) ([4]; 25× MIC): ~70%
% cell survival, CFU/mL(after treatment)/CFU/mL(pretreatment) ([4]; 50× MIC): ~70%
MIC (P. aeruginosa; reported MIC converted to μM): 1.07 µM
MIC (P. aeruginosa; reported MIC): 0.5 µg/mL
MIC (PA_1076058): > 16 µg/mL
MIC (PA_1081725): 16 µg/mL (≈ 34.2 µM)
% survival (viable biomass, COMSTAT) [5]: ~70%
tolerance of pellicle biofilms (CLSM) ([6]; 25× and 50× the MIC): tolerant

colistin
% cell survival, CFU/mL(after treatment)/CFU/mL(pretreatment) ([4]; 25× MIC): ~10%
% cell survival, CFU/mL(after treatment)/CFU/mL(pretreatment) ([4]; 50× MIC): ~1%
MIC (P. aeruginosa; reported MIC converted to μM): 0.79 µM
MIC (P. aeruginosa; reported MIC): 1 µg/mL
% survival (viable biomass, COMSTAT) [5]: ~20%
fluorescence signal from viable cells expressing EYFP ([6]; 50× MIC): undetectable
susceptibility of pellicle biofilms (CLSM) ([6]; concentrations above 10× MIC): susceptible

B1: Bfd: bacterioferritin-associated ferredoxin, a [2Fe-2S] protein that binds BfrB to mobilize stored iron (protein, UniProt Q9HY80 1-73, looked up)
Bacterioferritin-associated …: MYVCLCQGVTDNQIRDAIYEGCCSYREVREATGVGTQCGKCACLAKQVVRETLNDLQSAQPVPAFGTTAFVAA
Kd (BfrB [7]): 3 µM
